From patent US12329158B2, “Large-scale methods of uniformly coating packaging surfaces with a volatile antimicrobial to preserve food freshness” (AGROFRESH INC., priority 2013, dated 2025)
In brackets after ≈: the same amount, converted by molar mass.

Legend:
Epidermophyton floccus [1] = assay: In vitro contact assay (Example 26); format: cell-based; conditions: 5 days at 28 C, 100% control; for MIC: Epidermophyton, 120 h, read-out: MIC (mg/L) Epidermophyton floccus
Description: (§1) Half-strength Potato Dextrose Agar (PDA) is amended with a mixture of one of the test compounds in acetone or methanol to a final concentration of 50, 10, 2, 0.4 or 0.08 mg/L. A 3-mL volume of the amended media is added to each well of the microtiter plate. […] The plates are sealed with a clear film and incubated inverted for 5 days at 28° C.

[2] = tested on: Trichophyton mentagrophytes; assay: In vitro contact assay (Example 26); format: cell-based; conditions: 5 days at 28 C, 100% control; for MIC: Trichophyton mentagrophytes, 120 h, read-out: MIC (mg/L) Trichophyton mentagrophytes
Description: as §1

Trichophyton rubrum [3] = assay: In vitro contact assay (Example 26); format: cell-based; conditions: 5 days at 28 C, 100% control; for MIC: Trichophyton rubrum, 120 h, read-out: MIC (mg/L) Trichophyton rubrum
Description: as §1

Epidermophyton floccus [4] = assay: In vitro volatile assay (Example 26); format: cell-based; conditions: 5 days at 28 C, 100% control; for MIC: Epidermophyton, 120 h, read-out: MIC (mg/L) Epidermophyton floccus
Description: (§2) Volatile assay: 6-well (16.5 mL volume per well) microtiter plates are used in an in vitro inhibition assay for Compounds A and 31, and compared to other registered fungicides (5-fluorocytosine, Amphotericin B, aspofungin diacetate, Fluconazole and Itraconazole). A 7.5-mL volume of half strength PDA is added to each well. After drying, a mycelial plug (5 mm diameter) is aseptically obtained from actively growing cultures of Epidermophyton floccus, Trichophyton rubrum, or Trichophyton mentagrophytes and placed at the center of the plate with the mycelial side in contact with the agar. A Whatman #1 filter disk (Cat. No. 1001-325) is placed, in duplicate, on the underside of a polyethylene PCR plate sealing film. […] The headspace around the inoculum is then sealed inside the well by the film with the adhering disk containing the fungicide and incubated inverted for 5 days at 28° C.

[5] = tested on: Trichophyton mentagrophytes; assay: In vitro volatile assay (Example 26); format: cell-based; conditions: 5 days at 28 C, 100% control; for MIC: Trichophyton mentagrophytes, 120 h, read-out: MIC (mg/L) Trichophyton mentagrophytes
Description: as §2

Trichophyton rubrum [6] = assay: In vitro volatile assay (Example 26); format: cell-based; conditions: 5 days at 28 C, 100% control; for MIC: Trichophyton rubrum, 120 h, read-out: MIC (mg/L) Trichophyton rubrum
Description: as §2

Penicillium digitatum [7] = assay: Green mold on orange, volatile assay (Example 25); format: in vivo; conditions: 50 mg/L, day 3 at 21 C after 5 days at 1 C
Penicillium expansum [8] = assay: Blue mold on apple and pear, contact assay (Example 25); format: in vivo; conditions: Contact (dip); rate not given; day 3 at 21 C after 5 days at 1 C
Description: (§3) A 250 mL solution of each concentration is used to dip two inoculated fruits, one minute per fruit, performed in triplicate per rate. The dipped fruits are then placed back into the clamshells and then into the SnapWare container and incubated at 1° C. for 5 days. […] Volatile application of Compound A results in excellent inhibition of browning and sporulation, whereas all other active ingredients result in no or little inhibition.

Penicillium digitatum [9] = assay: Green mold on orange, contact assay (Example 25); format: in vivo; conditions: Contact (dip); rate not given; day 3 at 21 C after 5 days at 1 C
Description: as §3

Penicillium expansum [10] = assay: Blue mold on apple and pear, volatile assay (Example 25); conditions: 50 mg/L, day 3 at 21 C after 5 days at 1 C
Description: Two apples, pears or oranges are placed in a clamshell, and three fresh wounds are made near the equatorial region of each fruit. Each fruit wound is then inoculated with 20 μL of 1×10^6 spores per mL of Penicillium expansum or digitatum suspension, respectively. The inoculum is allowed to dry for two hours prior to treatment application as a volatile or contact.
Volatile Assay: Clamshells are then placed at the bottom of a 2.55-L SnapWare airtight container (Model #109842). […] The solutions are pipetted into Whatman filter disks mounted to the inside lid of the container. The chambers are then incubated at 1° C. for 5 days, removed to 21° C., and evaluated on day 3 by determining the diameter (mm) of rot development (browning) or sporulation.

Alternaria alternata = assay: Volatile MIC assay (Example 9); format: cell-based; conditions: 72 h, headspace concentration, 3 days at 23 C, read-out: MIC (mg/L) ALTEAL
Description: (§4) A 3-mL volume of full-strength Potato Dextrose Agar (PDA) is added to each well. […] Plates are inoculated immediately prior to volatile fungicide treatment. A Whatman #1 filter disk (Cat. No. 1001-0155) is placed, in duplicate, on the underside of a polyethylene PCR plate sealing film. […] The acetone is permitted to evaporate for 5 minutes. The headspace around the inoculum is then sealed inside the well by the film with the adhering disk containing the fungicide by inverting the plates over the treated disks and sealing to prevent any of the chemical from flaking from the disk and falling onto the inoculated agar.

Botrytis cinerea [11] = assay: Volatile MIC assay (Example 9); format: cell-based; conditions: 72 h, headspace concentration, 3 days at 23 C, read-out: MIC (mg/L) BOTRCI
Description: as §4

Glomerella cingulata = assay: Volatile MIC assay (Example 9); format: cell-based; conditions: Colletotrichum gloeosporioides, 72 h, headspace concentration, 3 days at 23 C, read-out: MIC (mg/L) GLOMCI
Description: as §4

Monilinia fructicola = assay: Volatile MIC assay (Example 9); format: cell-based; conditions: 72 h, headspace concentration, 3 days at 23 C, read-out: MIC (mg/L) MONIFC
Description: as §4

Penicillium expansum [12] = assay: Volatile MIC assay (Example 9); format: cell-based; conditions: 72 h, headspace concentration, 3 days at 23 C, read-out: MIC (mg/L) PENIEX
Description: as §4

B. cinerea = assay: In vitro contact assay, amended agar (Example 24); format: cell-based; conditions: Botrytis cinerea, 72 h; amended agar; 100% control; 3 days at 23 C; read-out: Contact MIC (mg/L) B. cinerea
Description: (§5) Contact assay: 6-well (16.5 mL volume per well) microtiter plates are used for an in vitro inhibition assay. […] A 7.5-mL volume of the amended media is added to each well of the microtiter plate. […] The plates are sealed with a clear film and incubated for 3 days at 23° C. After incubation, plates are evaluate for percent growth relative to acetone only control.

P. expansum = assay: In vitro contact assay, amended agar (Example 24); format: cell-based; conditions: Penicillium expansum, 72 h; amended agar; 100% control; 3 days at 23 C; read-out: Contact MIC (mg/L) P. expansum
Description: as §5

Botrytis cinerea [13] = assay: In vitro volatile assay (Example 24); format: cell-based; conditions: 72 h, headspace, 100% control, 3 days at 23 C, read-out: Volatile MIC (mg/L) B. cinerea
Description: (§6) Volatile assay: 12-well (6.5 mL volume per well) microtiter plates are used. A 3-mL volume of half strength PDA is added to each well. […] A Whatman #1 filter disk (Cat. No. 1001-0155) is placed, in duplicate, on the underside of a polyethylene PCR plate sealing film. […] The acetone is permitted to evaporate for 5 minutes. The headspace around the inoculum is then sealed inside the well by the film with the adhering disk containing the fungicide. Plates are inverted, placed over the treated disks, and sealed to prevent any of the chemical from flaking from the disk and falling onto the inoculated agar. […] Contact assay: 6-well (16.5 mL volume per well) microtiter plates are used for an in vitro inhibition assay. […] A 7.5-mL volume of the amended media is added to each well of the microtiter plate. […] The plates are sealed with a clear film and incubated for 3 days at 23° C. After incubation, plates are evaluate for percent growth relative to acetone only control.

Penicillium expansum [14] = assay: In vitro volatile assay (Example 24); format: cell-based; conditions: 72 h, headspace, 100% control, 3 days at 23 C, read-out: Volatile MIC (mg/L) P. expansum
Description: as §6

## Nc1nc(=O)[nH]cc1F [5-Fluorocytosine, 5-fluorocytosine]
Epidermophyton floccus [1]
  MIC: > 50 mg/L
[2]
  MIC: > 50 mg/L
Trichophyton rubrum [3]
  MIC: > 50 mg/L
Epidermophyton floccus [4]
  MIC: > 50 mg/L
[5]
  MIC: > 50 mg/L
Trichophyton rubrum [6]
  MIC: > 50 mg/L

## C[C@@H]1[C@H](O)[C@@H](C)/C=C/C=C/C=C/C=C/C=C/C=C/C=C/[C@H](O[C@@H]2O[C@H](C)[C@@H](O)[C@H](N)[C@@H]2O)C[C@@H]2O[C@](O)(C[C@@H](O)C[C@@H](O)[C@H](O)CC[C@@H](O)C[C@@H](O)CC(=O)O[C@H]1C)C[C@H](O)[C@H]2C(=O)O [Amphotericin B]
Epidermophyton floccus [1]
  MIC (mg/L) Epidermophyton floccus: 50.0 mg/L (≈ 54.1 µM)
[2]
  MIC (mg/L) Trichophyton mentagrophytes: >50 mg/L
Trichophyton rubrum [3]
  MIC (mg/L) Trichophyton rubrum: >50 mg/L
Epidermophyton floccus [4]
  MIC (mg/L) Epidermophyton floccus: >50 mg/L
[5]
  MIC (mg/L) Trichophyton mentagrophytes: >50 mg/L
Trichophyton rubrum [6]
  MIC (mg/L) Trichophyton rubrum: >50 mg/L

## O=C(Nc1ccccc1-c1ccc(Cl)cc1)c1cccnc1Cl [Boscalid]
Penicillium digitatum [7]
  Orange Sporulation (mm): 30.3 mm
Penicillium expansum [8]
  Apple Browning (mm): 7.0 mm
  Apple Sporulation (mm): 0.8 mm
  Pear Browning (mm): 8.6 mm
  Pear Sporulation (mm): 2.3 mm
Penicillium digitatum [9]
  Orange Sporulation (mm): >50 mm
Penicillium expansum [10]
  Apple Browning (mm): 10.3 mm
  Apple Sporulation (mm): 2.4 mm
  Pear Browning (mm): 14.3 mm
  Pear Sporulation (mm): 3.6 mm

## COB1OCc2ccccc21 [Compound 6]
Alternaria alternata
  MIC: 4.5 mg/L (≈ 30.4 µM)
Botrytis cinerea [11]
  MIC: 2.2 mg/L (≈ 14.9 µM)
Glomerella cingulata
  MIC: 17.9 mg/L (≈ 121 µM)
Monilinia fructicola
  MIC: 8.9 mg/L (≈ 60.1 µM)
Penicillium expansum [12]
  MIC: 17.9 mg/L (≈ 121 µM)
B. cinerea
  MIC: 2 mg/L (≈ 13.5 µM)
P. expansum
  MIC: 2 mg/L (≈ 13.5 µM)
Botrytis cinerea [13]
  MIC: 4.5 mg/L (≈ 30.4 µM)
Penicillium expansum [14]
  MIC: 17.9 mg/L (≈ 121 µM)

## COCCCOB1OCc2ccccc21 [Compound 7]
Alternaria alternata
  MIC: 8.9 mg/L (≈ 43.2 µM)
Botrytis cinerea [11]
  MIC: 2.2 mg/L (≈ 10.7 µM)
Glomerella cingulata
  MIC: 71.4 mg/L (≈ 347 µM)
Monilinia fructicola
  MIC: 8.9 mg/L (≈ 43.2 µM)
Penicillium expansum [12]
  MIC: 17.9 mg/L (≈ 86.9 µM)

## COCCOB1OCc2ccccc21 [Compound 8]
Alternaria alternata
  MIC: 8.9 mg/L (≈ 46.3 µM)
Botrytis cinerea [11]
  MIC: 2.2 mg/L (≈ 11.5 µM)
Glomerella cingulata
  MIC: 71.4 mg/L (≈ 372 µM)
Monilinia fructicola
  MIC: 4.5 mg/L (≈ 23.4 µM)
Penicillium expansum [12]
  MIC: 35.7 mg/L (≈ 186 µM)

## CC(C)OB1OCc2ccccc21 [Compound 9]
Alternaria alternata
  MIC: 8.9 mg/L (≈ 50.6 µM)
Botrytis cinerea [11]
  MIC: 2.2 mg/L (≈ 12.5 µM)
Glomerella cingulata
  MIC: 35.7 mg/L (≈ 203 µM)
Monilinia fructicola
  MIC: 8.9 mg/L (≈ 50.6 µM)
Penicillium expansum [12]
  MIC: 8.9 mg/L (≈ 50.6 µM)

## CC(COB1OCc2cc(F)ccc21)OB1OCc2cc(F)ccc21 (stereo not drawn) [Compound 31]
B. cinerea
  MIC: 0.4 mg/L (≈ 1.16 µM)
P. expansum
  MIC: 2 mg/L (≈ 5.82 µM)
Botrytis cinerea [13]
  MIC: 0.6 mg/L (≈ 1.74 µM)
Penicillium expansum [14]
  MIC: 8.9 mg/L (≈ 25.9 µM)
[2]
  MIC: 2 mg/L (≈ 5.82 µM)
Trichophyton rubrum [3]
  MIC: 10 mg/L (≈ 29.1 µM)
[5]
  MIC: 2 mg/L (≈ 5.82 µM)
Trichophyton rubrum [6]
  MIC: 2 mg/L (≈ 5.82 µM)

## OB1OCc2cc(Cl)ccc21 [Compound 201]
Alternaria alternata
  MIC: 16.1 mg/L (≈ 95.6 µM)
Botrytis cinerea [11]
  MIC: 3.8 mg/L (≈ 22.6 µM)
Glomerella cingulata
  MIC: 9.3 mg/L (≈ 55.2 µM)
Monilinia fructicola
  MIC: 8.5 mg/L (≈ 50.5 µM)
Penicillium expansum [12]
  MIC: 29.5 mg/L (≈ 175 µM)

## OC(Cn1cncn1)(Cn1cncn1)c1ccc(F)cc1F [Fluconazole]
Epidermophyton floccus [1]
  MIC: 10 mg/L (≈ 32.7 µM)
[2]
  MIC: > 50 mg/L
Trichophyton rubrum [3]
  MIC: 50 mg/L (≈ 163 µM)
Epidermophyton floccus [4]
  MIC: > 50 mg/L
[5]
  MIC: > 50 mg/L
Trichophyton rubrum [6]
  MIC: > 50 mg/L

## N#Cc1c[nH]cc1-c1cccc2c1OC(F)(F)O2 [Fludioxonil]
Penicillium digitatum [7]
  Orange Sporulation (mm): 40.8 mm
Penicillium expansum [8]
  Apple Browning (mm): 2.9 mm
  Apple Sporulation (mm): 0.0 mm
  Pear Browning (mm): 3.3 mm
  Pear Sporulation (mm): 0.0 mm
Penicillium digitatum [9]
  Orange Sporulation (mm): 8.3 mm
Penicillium expansum [10]
  Apple Browning (mm): 11.2 mm
  Apple Sporulation (mm): 3.1 mm
  Pear Browning (mm): 12.8 mm
  Pear Sporulation (mm): 2.8 mm

## C=CCOC(Cn1ccnc1)c1ccc(Cl)cc1Cl (stereo not drawn) [Imazalil]
Penicillium digitatum [7]
  Orange Sporulation (mm): 41.4 mm
Penicillium expansum [8]
  Apple Browning (mm): 6.9 mm
  Apple Sporulation (mm): 0.9 mm
  Pear Browning (mm): 7.9 mm
  Pear Sporulation (mm): 1.0 mm
Penicillium digitatum [9]
  Orange Sporulation (mm): 0.0 mm
Penicillium expansum [10]
  Apple Browning (mm): 11.1 mm
  Apple Sporulation (mm): 3.0 mm
  Pear Browning (mm): 14.3 mm
  Pear Sporulation (mm): 3.4 mm

## Cc1cc(C)nc(Nc2ccccc2)n1 [Pyrimethanil]
Penicillium digitatum [7]
  Orange Sporulation (mm): 22.3 mm
Penicillium expansum [8]
  Apple Browning (mm): 8.1 mm
  Apple Sporulation (mm): 2.4 mm
  Pear Browning (mm): 8.9 mm
  Pear Sporulation (mm): 5.2 mm
Penicillium digitatum [9]
  Orange Sporulation (mm): 0.0 mm
Penicillium expansum [10]
  Apple Browning (mm): 11.3 mm
  Apple Sporulation (mm): 2.6 mm
  Pear Browning (mm): 14.0 mm
  Pear Sporulation (mm): 6.5 mm

## c1ccc2[nH]c(-c3cscn3)nc2c1 [Thiabendazole]
Penicillium digitatum [7]
  Orange Sporulation (mm): >50 mm
Penicillium expansum [8]
  Apple Browning (mm): 8.2 mm
  Apple Sporulation (mm): 1.9 mm
  Pear Browning (mm): 9.1 mm
  Pear Sporulation (mm): 5.4 mm
Penicillium digitatum [9]
  Orange Sporulation (mm): 0.0 mm
Penicillium expansum [10]
  Apple Browning (mm): 8.4 mm
  Apple Sporulation (mm): 2.0 mm
  Pear Browning (mm): 12.9 mm
  Pear Sporulation (mm): 3.0 mm
